{"source": "patent US11730619B2", "about": "“Systems and methods for determining failure of intragastric devices” (RESHAPE LIFESCIENCES INC., priority 2015, dated 2023)", "origin": "cited, not measured here", "key": {"[1]": {"settings": "for Solubility: solvent not given"}, "[2]": {"settings": "Meng et al. 2013"}, "[3]": {"settings": "cell wraps: Generally well-tolerated in patients; Merck Index"}, "[4]": {"settings": "pH 3"}}, "note": "Structures can show the parent of a compound that is named as a salt. Where two headings read alike, the source gives them in different places."}
{"compound": "CN(C)CCC=C1c2ccccc2CCc2ccccc21", "note": "[Amitriptyline Hydrochloride]", "values": [{"measurement": "Solubility in water", "setting": "[1]; water, Merck Index", "result": "Salt is freely soluble in"}, {"measurement": "LD50 (rats)", "setting": "rat; rats, second of two values, Merck Index", "result": 380, "unit": "mg/kg"}]}
{"compound": "Cc1cc2nc3c(=O)[nH]c(=O)nc-3n(C[C@H](O)[C@H](O)[C@H](O)CO)c2cc1C", "note": "[B vitamins (e.g. Riboflavin), Riboflavin]", "values": [{"measurement": "Solubility in water", "setting": "[1]; Merck Index", "result": "Solubility: 1 g in 3 L g in 3 L water"}]}
{"compound": "O=C1/C(=C2\\Nc3ccc(S(=O)(=O)[O-])cc3C2=O)Nc2ccc(S(=O)(=O)[O-])cc21.[Na+].[Na+]", "note": "[Indigo carmine]", "values": [{"measurement": "LD50 (rat, oral)", "setting": "rat; rat, oral, Baker MSDS sheet", "result": "2000 mg/kg (Baker MSDS sheet)"}]}
{"compound": "CN(C)c1ccc2c(c1)Sc1cc(N(C)C)ccc1N2", "note": "[Leukomethylene blue]", "values": [{"measurement": "Excretion in urine", "setting": "[2]; stabilized in the urine", "result": "excreted mostly unaltered"}]}
{"compound": "Cc1cc2nc3[nH]c(=O)[nH]c(=O)c3nc2cc1C", "note": "[Lumichrome]", "values": [{"measurement": "Solubility in hot water", "setting": "[1]; hot water, Merck Index", "result": "Sparingly soluble in hot water"}, {"measurement": "Solubility", "setting": "[1]", "result": "poor solubility"}]}
{"compound": "Cc1cc2nc3c(=O)[nH]c(=O)nc-3n(C)c2cc1C", "note": "[Lumiflavine]", "values": [{"measurement": "Solubility", "setting": "[1]", "result": "poor solubility"}, {"measurement": "Solubility in water", "setting": "[1]; water, Merck Index", "result": "Very sparingly soluble in water"}]}
{"compound": "COc1ccccc1OCC(O)COC(N)=O", "note": "(centres unmarked) [Methocarbamol]", "values": [{"measurement": "Tolerability in patients", "setting": "[3]", "result": "Generally well-"}, {"measurement": "Water solubility", "setting": "[1]; @ 20° C., Merck Index", "result": "Water soluble 2.5 g/100 g/100 mL"}]}
{"compound": "O=C(O)c1cc(O)c2c(c1)[C@H]([C@H]1c3cc(C(=O)O)cc(O)c3C(=O)c3c(O[C@@H]4O[C@H](CO)[C@@H](O)[C@H](O)[C@H]4O)cccc31)c1cccc(O[C@@H]3O[C@H](CO)[C@@H](O)[C@H](O)[C@H]3O)c1C2=O", "note": "[Sennoside A]", "values": [{"measurement": "Solubility in water", "setting": "[1]; water, Merck Index", "result": "insoluble in water."}]}
{"compound": "O=C(O)c1cc(O)c2c(c1)[C@@H]([C@H]1c3cc(C(=O)O)cc(O)c3C(=O)c3c(O[C@@H]4O[C@H](CO)[C@@H](O)[C@H](O)[C@H]4O)cccc31)c1cccc(O[C@@H]3O[C@H](CO)[C@@H](O)[C@H](O)[C@H]3O)c1C2=O", "note": "[Sennoside B]", "values": [{"measurement": "Solubility in water relative to Sennoside A", "setting": "[1]; cell wraps: more soluble in water than Sennoside A, Merck", "result": "Sennoside B is more"}]}
{"compound": "Nc1nc(N)c2nc(-c3ccccc3)c(N)nc2n1", "note": "[Triamterene]", "values": [{"measurement": "Tolerability in patients", "setting": "[3]", "result": "Generally well-"}, {"measurement": "Solubility: parts water in which 1 part is soluble", "setting": "[1]; 1 part soluble in 1000 parts water, Merck Index", "result": "1 part soluble in 1000 parts water"}]}
{"compound": "CN(C)c1ccc2nc3ccc(=[N+](C)C)cc-3sc2c1", "note": "[methylene blue]", "values": [{"measurement": "Conversion on passage through the gastrointestinal tract", "setting": "[2]", "result": "reduced to leukomethylene blue"}]}
{"compound": "Betalain [Betalain (including betanin)]", "values": [{"measurement": "pH range of stability", "setting": "[4]", "result": "Stable between pH 3"}]}
